According to patent US20240398784A1, “C-LINKED ISOQUINOLINE AMIDES AS LRRK2 INHIBITORS, PHARMACEUTICAL COMPOSITIONS, AND USES THEREOF” (Merck Sharp & Dohme LLC, priority 2021, published 2024):

Biological target: LRRK2 G2019S (Homo sapiens, UniProt Q5S007, G2019S)
Test: LRRK2 G2019S Km ATP LanthaScreen assay
Assay type: biochemical
Conditions: read-out: LRRK2 pIC50 (converted)

Sequence of LRRK2 G2019S (Q5S007 whole entry G2019S): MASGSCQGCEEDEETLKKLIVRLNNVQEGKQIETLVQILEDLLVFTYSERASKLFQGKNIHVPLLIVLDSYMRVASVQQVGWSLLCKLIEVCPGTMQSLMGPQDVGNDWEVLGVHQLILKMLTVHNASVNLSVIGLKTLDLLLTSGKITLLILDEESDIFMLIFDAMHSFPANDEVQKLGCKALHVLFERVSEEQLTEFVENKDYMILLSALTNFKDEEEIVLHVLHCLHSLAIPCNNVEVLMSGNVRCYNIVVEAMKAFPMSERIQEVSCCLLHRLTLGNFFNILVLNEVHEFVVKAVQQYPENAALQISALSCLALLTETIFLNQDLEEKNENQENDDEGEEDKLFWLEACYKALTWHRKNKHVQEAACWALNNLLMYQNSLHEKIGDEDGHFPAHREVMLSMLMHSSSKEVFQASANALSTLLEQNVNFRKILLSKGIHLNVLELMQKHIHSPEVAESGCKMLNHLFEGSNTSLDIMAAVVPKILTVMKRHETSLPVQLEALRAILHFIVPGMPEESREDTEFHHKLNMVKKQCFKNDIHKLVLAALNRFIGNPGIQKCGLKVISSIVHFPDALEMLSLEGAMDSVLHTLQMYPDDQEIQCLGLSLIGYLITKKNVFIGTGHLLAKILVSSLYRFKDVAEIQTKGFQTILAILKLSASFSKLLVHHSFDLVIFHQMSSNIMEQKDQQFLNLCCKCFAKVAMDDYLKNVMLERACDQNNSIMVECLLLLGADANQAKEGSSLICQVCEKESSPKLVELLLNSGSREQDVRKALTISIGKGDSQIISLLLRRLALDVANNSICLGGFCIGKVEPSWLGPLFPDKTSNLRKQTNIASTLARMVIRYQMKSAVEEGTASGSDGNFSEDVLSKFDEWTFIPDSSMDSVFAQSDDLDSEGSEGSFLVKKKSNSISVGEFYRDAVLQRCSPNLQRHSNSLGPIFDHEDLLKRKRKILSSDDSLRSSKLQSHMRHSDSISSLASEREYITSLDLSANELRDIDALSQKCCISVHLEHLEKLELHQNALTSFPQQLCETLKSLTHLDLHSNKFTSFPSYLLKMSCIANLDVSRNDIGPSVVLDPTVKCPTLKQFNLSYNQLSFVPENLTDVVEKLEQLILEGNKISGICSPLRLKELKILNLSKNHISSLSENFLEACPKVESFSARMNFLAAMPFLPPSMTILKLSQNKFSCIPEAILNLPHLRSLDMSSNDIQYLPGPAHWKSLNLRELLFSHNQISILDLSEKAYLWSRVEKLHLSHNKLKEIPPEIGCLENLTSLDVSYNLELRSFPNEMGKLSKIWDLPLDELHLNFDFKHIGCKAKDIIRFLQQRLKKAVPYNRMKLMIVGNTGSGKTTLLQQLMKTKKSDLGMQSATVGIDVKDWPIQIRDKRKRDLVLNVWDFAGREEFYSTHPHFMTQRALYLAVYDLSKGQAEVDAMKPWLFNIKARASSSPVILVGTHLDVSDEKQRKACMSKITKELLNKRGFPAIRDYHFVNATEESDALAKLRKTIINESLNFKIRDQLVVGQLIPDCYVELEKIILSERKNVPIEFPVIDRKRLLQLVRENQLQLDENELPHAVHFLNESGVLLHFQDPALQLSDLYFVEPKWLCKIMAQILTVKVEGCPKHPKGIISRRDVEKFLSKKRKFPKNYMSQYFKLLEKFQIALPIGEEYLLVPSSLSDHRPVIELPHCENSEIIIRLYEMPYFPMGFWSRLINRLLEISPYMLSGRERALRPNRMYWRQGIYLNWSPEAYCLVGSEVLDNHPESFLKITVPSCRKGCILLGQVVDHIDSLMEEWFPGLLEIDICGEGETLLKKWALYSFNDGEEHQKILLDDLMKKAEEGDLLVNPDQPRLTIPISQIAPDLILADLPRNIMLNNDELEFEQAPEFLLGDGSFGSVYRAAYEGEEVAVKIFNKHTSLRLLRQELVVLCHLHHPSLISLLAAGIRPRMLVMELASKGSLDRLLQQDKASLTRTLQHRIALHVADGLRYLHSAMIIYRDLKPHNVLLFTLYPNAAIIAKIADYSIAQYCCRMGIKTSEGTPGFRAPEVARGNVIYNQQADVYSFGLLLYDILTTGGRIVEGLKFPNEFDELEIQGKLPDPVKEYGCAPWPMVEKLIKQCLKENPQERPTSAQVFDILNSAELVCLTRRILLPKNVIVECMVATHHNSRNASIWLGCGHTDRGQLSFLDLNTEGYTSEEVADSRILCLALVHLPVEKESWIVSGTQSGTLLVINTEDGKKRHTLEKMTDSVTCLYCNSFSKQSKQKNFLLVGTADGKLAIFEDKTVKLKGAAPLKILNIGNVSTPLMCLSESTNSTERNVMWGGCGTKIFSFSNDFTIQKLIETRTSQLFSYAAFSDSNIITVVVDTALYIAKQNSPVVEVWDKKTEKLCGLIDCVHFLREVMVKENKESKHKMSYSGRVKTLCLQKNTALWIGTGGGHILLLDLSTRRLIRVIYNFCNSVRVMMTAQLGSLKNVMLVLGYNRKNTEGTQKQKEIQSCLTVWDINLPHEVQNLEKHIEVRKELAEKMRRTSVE

SMILES	IC50 [nM]
CC1(N2CCC(c3cc4cc(NC(=O)C5CC5c5ccccn5)ncc4cc3Cl)CC2)CCOC1 (single isomer, unassigned) [Ex-6.35, N-(7-chloro-6-(1-(3-methyltetrahydrofuran-3-yl)piperidin-4-yl)isoquinolin-3-yl)-2-(pyridin-2-yl)cyclopropane-1-carboxamide]	6.61
Cc1cc2cnc(NC(=O)C3CC3c3ccccn3)cc2cc1C1CCN(C2(C)CCOC2)CC1 (single isomer, unassigned) [Ex-16.12, N-(7-methyl-6-(1-(3-methyltetrahydrofuran-3-yl)piperidin-4-yl)isoquinolin-3-yl)-2-(pyridin-2-yl)cyclopropane-1-carboxamide]	0.0813
O=C(Nc1cc2cc(C3CCN(C4COC4)CC3)c(Cl)cc2cn1)C1CC12CC2 (single isomer, unassigned) [Ex-9.2]	1.45
Cc1cc2cnc(NC(=O)C3CC3c3ccccn3)cc2cc1C1CCN(C2(C)COCC2F)CC1 (single isomer, unassigned) [Ex-13.1, (1R,2R or 1S,2S)-N-(6-(1-((3R,4R or 3S,4S)-4-fluoro-3-methyltetrahydrofuran-3-yl)piperidin-4-yl)-7-methylisoquinolin-3-yl)-2-(pyridin-2-yl)cyclopropane-1-carboxamide]	2.51
N#CC1(c2ccc3cnc(NC(=O)C4CC4c4ccccn4)cc3c2)CC12CC2 (centres unmarked) [Ex-2.38]	2.04
CCC1C(C(=O)Nc2cc3cc(C4CCC(N5CC(C)(F)C5)CC4)c(Cl)cc3cn2)C1c1cnn(C)c1 (single isomer, unassigned) [Ex-11.1, (1R,2R,3R) or (1R,2S,3R) or (1S,2R,3S) or (1S,2S,3S)-N-(7-chloro-6-((cis or trans)-4-(3-fluoro-3-methylazetidin-1-yl)cyclohexyl)isoquinolin-3-yl)-2-ethyl-3-(1-methyl-1H-pyrazol-4-yl)cyclopropane-1-carboxamide]	0.0813
COC1CN(C2CCC(c3cc4cc(NC(=O)C5CC56CCOCC6)ncc4cc3Cl)CC2)C1 (single isomer, unassigned) [Ex-11.3, N-(7-chloro-6-(4-(3-methoxyazetidin-1-yl)cyclohexyl)isoquinolin-3-yl)-6-oxaspiro[2.5]octane-1-carboxamide]	0.0813
N#CC1(c2cc3cc(NC(=O)C4CC4c4ccccn4)ncc3cc2F)CC12CC2 (single isomer, unassigned) [Ex-18.14, (1R,2R or 1S,2S)-N-(6-((R or S)-1-cyanospiro[2.2]pentan-1-yl)-7-fluoroisoquinolin-3-yl)-2-(pyridin-2-yl)cyclopropane-1-carboxamide]	60.3
N#CC1(c2ccc3cnc(NC(=O)Cc4cccnc4)cc3c2)CC12CC2 (single isomer, unassigned) [Ex-1.41, (R or S)-N-(6-(1-cyanospiro[2.2]pentan-1-yl)isoquinolin-3-yl)-2-(pyridin-3-yl)acetamide]	0.708
CC(C(=O)Nc1cc2cc(C3(C#N)CC34CC4)ccc2cn1)c1cnn(C)c1 (centres unmarked) [Ex-2.111]	2.24
O=C(Nc1cc2cc(C3CCC(N4CC(F)(F)C4)CC3)c(Cl)cc2cn1)C1CC1c1ccccn1 (single isomer, unassigned) [Ex-5.6, N-(7-chloro-6-(4-(3,3-difluoroazetidin-1-yl)cyclohexyl)isoquinolin-3-yl)-2-(pyridin-2-yl)cyclopropane-1-carboxamide]	912
O=C(Nc1cc2cc(C3C4CCOCC43)c(Cl)cc2cn1)C1CC12CCOCC2 (single isomer, unassigned) [Ex-9.23, N-(6-(3-oxabicyclo[4.1.0]heptan-7-yl)-7-chloroisoquinolin-3-yl)-6-oxaspiro[2.5]octane-1-carboxamide]	19.1
N#CC1(c2cc3cc(NC(=O)C4CC4)ncc3cc2F)CC12CC2 (single isomer, unassigned) [Ex-18.10, (R or S)-N-(6-(1-cyanospiro[2.2]pentan-1-yl)-7-fluoroisoquinolin-3-yl)cyclopropanecarboxamide]	12.6

Further lines, results first:

IC50 [nM]	SMILES
0.0813	CN(C)C1CCC2C(C(=O)Nc3cc4cc(C5CCN(C6(C)COCC6O)CC5)c(Cl)cc4cn3)C21 (single isomer, unassigned) [Ex-4.28, N-(7-chloro-6-(1-(4-hydroxy-3-methyltetrahydrofuran-3-yl)piperidin-4-yl)isoquinolin-3-yl)-2-(dimethylamino)bicyclo[3.1.0]hexane-6-carboxamide]
3630	CC1(C)CCC(C(=O)Nc2cc3cc(C4CCC(N5CCC(F)C5)CC4)c(Cl)cc3cn2)CO1 (single isomer, unassigned) [Ex-5.21, N-(7-chloro-6-(4-(3-fluoropyrrolidin-1-yl)cyclohexyl)isoquinolin-3-yl)-6,6-dimethyltetrahydro-2H-pyran-3-carboxamide]
1.95	CC1(N2CCC(c3cc4cc(NC(=O)C5C6COCC65)ncc4cc3Cl)CC2)CCOC1 (single isomer, unassigned) [Ex-6.11, N-(7-chloro-6-(1-(3-methyltetrahydrofuran-3-yl)piperidin-4-yl)isoquinolin-3-yl)-3-oxabicyclo[3.1.0]hexane-6-carboxamide]
47.9	CC1(N2CCC(c3cc4cc(NC(=O)C5CCC(C(F)(F)F)OC5)ncc4cc3Cl)CC2)COCC1O (centres unmarked) [Ex-2.60]
16.6	CC1(C(=O)Nc2cc3cc(C4CCN(C5COC5)CC4)c(Cl)cc3cn2)CC1 [Ex-7.3, N-(7-chloro-6-(1-(oxetan-3-yl)piperidin-4-yl)isoquinolin-3-yl)-1-methylcyclopropane-1-carboxamide]
41.7	CC1(N2CCC(c3cc4cc(NC(=O)C5CC56CCOCC6)ncc4cc3Cl)CC2)CCOCC1F (single isomer, unassigned) [Ex-12.1, N-(7-chloro-6-(1-((3R,4R or 3S,4S)-3-fluoro-4-methyltetrahydro-2H-pyran-4-yl)piperidin-4-yl)isoquinolin-3-yl)-6-oxaspiro[2.5]octane-1-carboxamide]
2.63	CC1(C)CC(C(=O)Nc2cc3cc(C4CCN(C5(C)COCC5O)CC4)c(Cl)cc3cn2)CCO1 (centres unmarked) [Ex-2.35]
0.977	CC1(N2CCC(c3cc4cc(NC(=O)C5CC5c5ccccn5)ncc4cc3Cl)CC2)CCOC1 (single isomer, unassigned) [Ex-6.34, N-(7-chloro-6-(1-(3-methyltetrahydrofuran-3-yl)piperidin-4-yl)isoquinolin-3-yl)-2-(pyridin-2-yl)cyclopropane-1-carboxamide]
1.78	CC1(C)CC(C(=O)Nc2cc3cc(C4CCC(N5CCC(F)C5)CC4)c(Cl)cc3cn2)CCO1 (single isomer, unassigned) [Ex-5.9, N-(7-chloro-6-(4-(3-fluoropyrrolidin-1-yl)cyclohexyl)isoquinolin-3-yl)-2,2-dimethyltetrahydro-2H-pyran-4-carboxamid]
117	O=C(Nc1cc2cc(C3CCN(C4COCC4O)CC3)c(Cl)cc2cn1)C1CC12CCOCC2 (single isomer, unassigned) [Ex-4.4, N-(7-chloro-6-(1-(4-hydroxytetrahydrofuran-3-yl)piperidin-4-yl)isoquinolin-3-yl)-6-oxaspiro[2.5]octane-1-carboxamide]
11.5	CC(C)(O)C1CC1C(=O)Nc1cc2cc(C3CCN(C4(C)COCC4O)CC3)c(Cl)cc2cn1 (centres unmarked) [Ex-2.20]
1.58	CC1(N2CCC(c3cc4cc(NC(=O)C5CC56CCOCC6)ncc4cc3Cl)C(F)C2)COCC1O (single isomer, unassigned) [Ex-14.5, N-(7-chloro-6-(3-fluoro-1-(4-hydroxy-3-methyltetrahydrofuran-3-yl)piperidin-4-yl)isoquinolin-3-yl)-6-oxaspiro[2.5]octane-1-carboxamide]
145	CC1C(C(=O)Nc2cc3cc(C4CCN(C5(C)COCC5O)CC4)c(Cl)cc3cn2)C12CCOCC2 (single isomer, unassigned) [Ex-10.8, N-(7-chloro-6-(1-(4-hydroxy-3-methyltetrahydrofuran-3-yl)piperidin-4-yl)isoquinolin-3-yl)-2-methyl-6-oxaspiro[2.5]octane-1-carboxamide]
43.7	CC1(N2CCC(c3cc4cc(NC(=O)C5CCC(C(F)(F)F)OC5)ncc4cc3Cl)CC2)COCC1O (centres unmarked) [Ex-2.61]
10.5	COC1CCC(C(=O)Nc2cc3cc(C4CCN(C5(C)COCC5O)CC4)c(Cl)cc3cn2)CC1 (single isomer, unassigned) [Ex-10.1, 1,4-trans, (3R,4R)- or 1,4-trans, (3S,4S)- or 1,4-cis, (3R,4R)- or 1,4-cis, (3S,4S)-N-(7-chloro-6-(1-(4-hydroxy-3-methyltetrahydrofuran-3-yl)piperidin-4-yl)isoquinolin-3-yl)-4-methoxycyclohexane-1-carboxamide]
2.69	CC(C)(O)C1CC1C(=O)Nc1cc2cc(C3CCN(C4(C)CCOC4)CC3)c(Cl)cc2cn1 (single isomer, unassigned) [Ex-6.14, N-(7-chloro-6-(1-(3-methyltetrahydrofuran-3-yl)piperidin-4-yl)isoquinolin-3-yl)-2-(2-hydroxypropan-2-yl)cyclopropane-1-carboxamide]
0.708	CC1(C)COCC1(C)N1CCC(c2cc3cc(NC(=O)C4CC45CCOCC5)ncc3cc2Cl)CC1 (single isomer, unassigned) [Ex-6.18, N-(7-chloro-6-(1-(3,4,4-trimethyltetrahydrofuran-3-yl)piperidin-4-yl)isoquinolin-3-yl)-6-oxaspiro[2.5]octane-1-carboxamide]
0.427	CC1(C)CCC(C(=O)Nc2cc3cc(C4CCN(C5(C)COCC5O)CC4)c(Cl)cc3cn2)CO1 (single isomer, unassigned) [Ex-4.26, N-(7-chloro-6-(1-(4-hydroxy-3-methyltetrahydrofuran-3-yl)piperidin-4-yl)isoquinolin-3-yl)-6,6-dimethyltetrahydrofuran-2H-pyran-3-carboxamide]
112	CC1(N2CCC(c3cc4cc(NC(=O)C5CC56CCOC6)ncc4cc3Cl)CC2)COCC1F (single isomer, unassigned) [Ex-6.2, (R or S)-N-(7-chloro-6-(1-((3R,4R or 3S,4S)-4-fluoro-3-methyltetrahydrofuran-3-yl)piperidin-4-yl)isoquinolin-3-yl)-5-oxaspiro [2.4] heptane-1-carboxamide]
